Counter-ions that a name gives are not always drawn.
These molecules were tested against human recombinant PDE4B (Homo sapiens (Human), UniProt Q07343, S133E/S654A/S659A/S661A). Conditions: read-out: Human PDE4B FL.
Chain of human recombinant PDE4B (Q07343 122-736 S133E/S654A/S659A/S661A): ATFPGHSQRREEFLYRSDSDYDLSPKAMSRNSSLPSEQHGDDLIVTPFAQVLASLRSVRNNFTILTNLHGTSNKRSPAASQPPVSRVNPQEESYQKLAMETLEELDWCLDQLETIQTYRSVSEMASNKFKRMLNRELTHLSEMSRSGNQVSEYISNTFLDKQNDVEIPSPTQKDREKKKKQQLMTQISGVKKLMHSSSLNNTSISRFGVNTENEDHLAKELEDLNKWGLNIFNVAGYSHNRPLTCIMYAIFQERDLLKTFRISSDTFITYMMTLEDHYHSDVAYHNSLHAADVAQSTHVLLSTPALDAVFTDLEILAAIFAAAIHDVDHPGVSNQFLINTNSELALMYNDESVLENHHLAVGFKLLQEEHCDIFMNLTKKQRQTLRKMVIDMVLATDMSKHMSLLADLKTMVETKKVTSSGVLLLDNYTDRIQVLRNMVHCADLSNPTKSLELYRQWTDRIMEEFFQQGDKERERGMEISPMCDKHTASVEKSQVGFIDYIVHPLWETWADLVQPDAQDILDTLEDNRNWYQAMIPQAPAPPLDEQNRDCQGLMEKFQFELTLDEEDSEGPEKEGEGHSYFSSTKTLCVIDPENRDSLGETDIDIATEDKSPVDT
Protocol: Reactions are incubated for 30 min at 25° C. The addition of 20 μL of 8 mg/mL yitrium silicate SPA beads (PerkinElmer) stops the reaction. The plates are sealed (TopSeal, PerkinElmer) and the beads are allowed to settle for 8 hrs, after which they are read on the Trilux Microbeta overnight.

SMILES | IC50 [nM]
O=C(c1nc2cccnc2n1-c1ccc(Cl)c(F)c1)N1CC(F)C1 [Example 21, [3-(4-Chloro-3-fluorophenyl)-3H-imidazo[4,5-b]pyridin-2-yl](3-fluoroazetidin-1-yl)methanone] | 42.6
CCNC(=O)c1nc2cccnc2n1-c1cncc(Cl)c1 [Example 81, 3-(5-Chloropyridin-3-yl)-N-ethyl-3H-imidazo[4,5-b]pyridine-2-carboxamide] | 8270
O=C(NC1CC1)c1nc2cccnc2n1-c1cc(F)c(F)c(F)c1 [Example 30, N-Cyclopropyl-3-(3,4,5-trifluorophenyl)-3H-imidazo[4,5-b]pyridine-2-carboxamide, trifluoroacetate salt] | 5.77
O=C(NC1CC1)c1nc2cccnc2n1C1Cc2ccccc2C1 [Example 47, N-Cyclopropyl-3-(2,3-dihydro-1H-inden-2-yl)-3H-imidazo[4,5-b]pyridine-2-carboxamide] | 1260
Cc1cccc(-n2c(C(=O)NC3CC3)nc3cccnc32)c1 [Example 70, N-Cyclopropyl-3-(3-methylphenyl)-3H-imidazo[4,5-b]pyridine-2-carboxamide] | 421
O=C(NC1CC1)c1nc2cccnc2n1-c1ccc(C(F)(F)F)cc1 [Example 92, N-Cyclopropyl-3-[4-(trifluoromethyl)phenyl]-3H-imidazo[4,5-b]pyridine-2-carboxamide] | 3110
O=C(NC1CC1)c1nc2cccnc2n1-c1ccc2ncccc2c1 [Example 80, N-Cyclopropyl-3-(quinolin-6-yl)-3H-imidazo[4,5-b]pyridine-2-carboxamide, trifluoroacetate salt] | 1470
Cc1ccc(-n2c(C(=O)NC3CC3)nc3cccnc32)c(C)c1 [Example 59, N-Cyclopropyl-3-(2,4-dimethylphenyl)-3H-imidazo[4,5-b]pyridine-2-carboxamide] | 1020
O=C(NC1CC1)c1nc2cccnc2n1-c1cccc(Cl)c1F [Example 78, 3-(3-Chloro-2-fluorophenyl)-N-cyclopropyl-3H-imidazo[4,5-b]pyridine-2-carboxamide, trifluoroacetate salt] | 387
Cn1ncc2ccc(-n3c(C(=O)NC4CC4)nc4cccnc43)cc21 [Example 86, N-Cyclopropyl-3-(1-methyl-1H-indazol-6-yl)-3H-imidazo[4,5-b]pyridine-2-carboxamide] | 24500
COc1cncc(-n2c(C(=O)NC3CC3)nc3cccnc32)c1 [Example 83, N-Cyclopropyl-3-(5-methoxypyridin-3-yl)-3H-imidazo[4,5-b]pyridine-2-carboxamide] | 13600
O=C(NC1CC1)c1nc2cccnc2n1-c1ccc(F)cc1F [Example 43, N-Cyclopropyl-3-(2,4-difluorophenyl)-3H-imidazo[4,5-b]pyridine-2-carboxamide] | 927
Cc1cc(Cl)ccc1-n1c(C(=O)N2CC(F)C2)nc2cccnc21 [Example 35, [3-(4-Chloro-2-methylphenyl)-3H-imidazo[4,5-b]pyridin-2-yl](3-fluoroazetidin-1-yl)methanone] | 1130
O=C(NC1CC1)c1nc2cccnc2n1-c1ccc(F)c(F)c1 [Example 62, N-Cyclopropyl-3-(3,4-difluorophenyl)-3H-imidazo[4,5-b]pyridine-2-carboxamide] | 34.9
